From patent US9394549B2, “Method for producing useful chemical substance from terephthalic acid potassium salt” (GENARIS, INC., priority 2012, dated 2016)

Tests used:
[1] = tested on: recombinant Escherichia coli strain M7032 (pUXPEaLT_tphA2A3A1_tpaK); assay: Production of TPA-DHD from terephthalic acid salt in jar fermentor culture; assay type: cell-based; conditions: for Ratio of the capacity in production (TPA-DHD): disodium terephthalate as 100%
Method: Based on the results of Example 1, on the basis of terephthalic acid, potassium hydroxide, sodium hydroxide, 28% ammonium solution and distilled water, 0.6 M dipotassium terephthalate aqueous solution, 0.6 M 1-potassium 4-sodium terephthalate aqueous solution, 0.6 M 1-potassium 4-ammonium terephthalate aqueous solution, and 0.6 M disodium terephthalate aqueous solution were prepared 500 mL each. 30 ml of these terephthalic acid salt solutions and 7 g of glucose were mixed to prepare a glucose and substrate mixed solution.
A TPA-DHD production plasmid pUXPEaLT_tphA2A3A1_tpaK constructed in Reference Example 3 was introduced into Escherichia coli M7032 strain (obtained from CGSC of Yale University) by a transformation method to obtain a recombinant Escherichia coli strain M7032 (pUXPEaLT_tphA2A3A1_tpaK).
This transformant was cultured in 1 ml of LB liquid medium (10 g/l tryptone (manufactured by Difco), 5 g/l dried yeast extract (manufactured by Difco), 10 g/l sodium chloride) containing ampicillin at a final concentration of 100 mg/1 overnight. Next, merely 1% of this overnight culture was inoculated in 10 ml of F6.6W/P100/G2 medium containing ampicillin at a final concentration of 100 mg/I and cultured at 30° C. for 24 hours.
Next, in order to carry out main culture based on this preculture, 65 ml of F6.6W/P10/G1 medium which is a main culture medium was put in an octuple mini jar fermentor (manufactured by ABLE Corporation) and adjusted to 30.2° C.±0.2 and pH 6.9±0.1.
The aeration condition of the jar fermentor culture was adjusted to 1 vvm and the adjustment of the pH of the culture was carried out using an ammonium solution and sulfuric acid. Further, dissolved oxygen in the culture solution was regulated as a saturated oxygen concentration of 100% and controlled with the revolution of stirring blade such that the dissolved oxygen is maintained at 15%, which dissolved oxygen decreasing as bacterial cells grow.
In a main culture medium, 0.1% of preculture was inoculated and cultured in the above condition. When the bacterial cell turbidity reached about 7 at an absorbance of 600 nm, an inducer, m-toluic acid was added such that the final concentration thereof was 1 mM to express a terephthalate 1,2-dioxygenase protein, terephthalate 1,2-dioxygenase reductase protein, and terephthalic acid transporter protein. The glucose concentration was measured with time. When the glucose concentration reached 0, the glucose and substrate mixed solution was administered.
Each of the samples was subjected to analysis in conditions shown in Table 1 by an LC-TOF type mass spectrometer (Waters Corporation, LCT Premier XE). Identification of terephthalic acid was carried out with a combination of retention time of high performance liquid chromatography and an accurate mass value from the mass spectrometer, comparing to a standard sample of terephthalic acid. Among substances appeared as terephthalic acid decreased, TPA-DHD was identified on the basis of a predicted accurate mass value of TPA-DHD. Further, quantification of TPA-DHD was carried out on the basis of a calibration curve prepared from an amount of terephthalic acid decreased and an increase in the peak area of TPA-DHD.
First, 0.6 M dipotassium terephthalate aqueous solution and 0.6 M disodium terephthalate aqueous solution, both of which were prepared in Example 2, were mixed at a ratio of 0:100, 20:80, 25:75, 30:70, 35:65, and 50:50 to prepare each aqueous solution of the terephthalic acid salts. These terephthalic acid salt solutions 30 ml and glucose 7 g were mixed to obtain glucose and substrate mixed solutions.
Using these glucose and substrate mixed solutions, the capacity of recombinant Escherichia coli strain M7032 (pUXPEaLT_tphA2A3A1_tpaK) in production of TPA-DHD was examined by the same method as the method of Example 2. […]

[2] = tested on: protocatechuic acid-producing Escherichia coli strain M7032 (pUXPEaLT_tphA2A3BA1_tpaK); assay: Production of protocatechuic acid from terephthalic acid salt in jar fermentor culture; assay type: cell-based; conditions: for Ratio of the capacity in production (protocatechuic acid): disodium terephthalate as 100%
Method: A protocatechuic acid-producing plasmid pUXPEaLT_tphA2A3BA1_tpaK constructed in Reference Example 2 was introduced into Escherichia coli M7032 strain by a transformation method to obtain a protocatechuic acid-producing Escherichia coli strain M7032 (pUXPEaLT_tphA2A3BA1_tpaK).
Subsequently, in the same manner as described in Example 2, the preculture of the present protocatechuic acid-producing bacterium was prepared and then merely 2% of such a preculture was inoculated in a main culture medium to carry out main culture. When the bacterial cell turbidity reached about 7 at an absorbance of 600 nm, an inducer m-toluic acid was added such that the final concentration thereof came to 1 mM to express terephthalate 1,2-dioxygenase protein, terephthalate 1,2-dioxygenase reductase protein, terephthalate dihydrodiol dehydrogenase protein, and terephthalic acid transporter protein. The glucose concentration was measured with time. When the glucose concentration reached 0, the glucose and substrate mixed solution was administered.
(§1) Sampling was carried out 48 hours after the start of the main culture. Each of the samples was subjected to analysis by an LC-TOF type mass spectrometer (Waters Corporation, LCT Premier XE). Identification of terephthalic acid and protocatechuic acid was carried out with a combination of retention time of high performance liquid chromatography and an accurate mass value from the mass spectrometer, comparing to a standard sample of terephthalic acid and protocatechuic acid.
(§2) Using the protocatechuic acid-producing Escherichia coli strain M7032 (pUXPEaLT_tphA2A3BA1_tpaK) created in Reference Example 2, in the same manner as described in Example 2, the preculture of the present protocatechuic acid-producing bacteria was prepared and then merely 2% of such a preculture was inoculated in a main culture medium to carry out main culture. When the bacterial cell turbidity reached about 7 at an absorbance of 600 nm, an inducer m-toluic acid was added such that the final concentration thereof came to 1 mM to express terephthalate 1,2-dioxygenase protein, terephthalate 1,2-dioxygenase reductase protein, terephthalate dihydrodiol dehydrogenase protein, and terephthalic acid transporter protein. The glucose concentration was measured with time. When the glucose concentration reached 0, the terephthalic acid salt derived from PET, which was prepared in Example 6, was dissolved such that the concentration thereof was 0.6M, mixed with glucose, and administered to a culture device.
as §1, with “52” for “48”
as §2, with “acid-producing bacterium” for “acid-producing bacteria”, “time. […]” for “time. When the glucose concentration reached 0, the terephthalic acid salt derived from PET, which was prepared in Example 6, was dissolved such that the concentration thereof was 0.6M, mixed with glucose, and administered to a culture device.”

[3] = 0.6 M salt solution as raw material, 48 hours after the start of the main culture
[4] = salt from PET in 1-butanol, 35 hours
[5] = salt obtained by depolymerization of PET in 1-butanol (Example 9), 0.6M, 35 hours
[6] = salt obtained by depolymerization of PTT (Example 7), 0.6M, 48 hours
[7] = salt obtained by depolymerization of PBT (Example 8), 0.6M, 48 hours
[8] = salt obtained by depolymerization of PET (Example 6), 0.6M, 52 hours

| Structure (SMILES) | TPA-DHD [1, 3] [g/L] | Ratio of the capacity in production (TPA-DHD) ([1]; 48 hours) [%] | Protocatechuic acid [2, 3] [g/L] | Ratio of the capacity in production (protocatechuic acid) ([2]; 48 hours) [%] | Ratio of the capacity in production (TPA-DHD) [1, 4] [%] | Ratio of the capacity in production (TPA-DHD) ([1]; salt from PTT, 48 hours) [%] | TPA-DHD [1, 5] [g/L] | TPA-DHD [1, 6] [g/L] | Ratio of the capacity in production (protocatechuic acid) ([2]; salt from PBT, 48 hours) [%] | Ratio of the capacity in production (protocatechuic acid) ([2]; salt from PET, 52 hours) [%] | Protocatechuic acid [2, 7] [g/L] | Protocatechuic acid [2, 8] [g/L] |
| --- | --- | --- | --- | --- | --- | --- | --- | --- | --- | --- | --- | --- |
| N.O=C([O-])c1ccc(C(=O)O)cc1.[K+] [1-potassium 4-ammonium terephthalate] | 12.2 | 126 | 7.1 | 142 |  |  |  |  |  |  |  |  |
| O=C([O-])c1ccc(C(=O)[O-])cc1.[K+].[Na+] [1-potassium 4-sodium terephthalate] | 10.7 | 110 | 7.7 | 154 | 116 | 112 | 14.8 | 14.3 | 108 | 108 | 11.0 | 11.1 |
| O=C([O-])c1ccc(C(=O)[O-])cc1.[K+].[K+] [Dipotassium terephthalate, dipotassium terephthalate] | 11.3 | 116 | 8.3 | 166 | 136 | 138 | 17.4 | 17.7 | 114 | 113 | 11.6 | 11.5 |
| O=C([O-])c1ccc(C(=O)[O-])cc1.[Na+].[Na+] [Disodium terephthalate, disodium terephthalate, reference compound] | 9.7 | 100 | 5.0 | 100 | 100 | 100 | 12.8 | 12.8 | 100 | 100 | 10.2 | 10.2 |
